Measured values reported in ChEMBL document CHEMBL4725363 (J Med Chem, 2020).
Calls of active or inactive are those of the source. The calls are words filed in the database; no cut-off is given here.

Legend:
Rattus norvegicus = experiment: Suppression of hypertension pressure in Wistar rat model of pulmonary hypertension at 20 mg/kg/day, po for 3 weeks; format: functional, organism-based
[1] = target: cGMP-specific 3',5'-cyclic phosphodiesterase (Homo sapiens, UniProt O76074); experiment: Inhibition of human PDE5A1 (535-860 residues) expressed in Escherichia coli BL21 incubated for 15 mins using [3H]-cGMP as substrate by liquid scintillation counting method
[2] = target: DNA topoisomerase 2-alpha (Homo sapiens) (UniProt P11388); experiment: Inhibition of Top2 (unknown origin) mediated supercoiled DNA relaxation at 100 uM
[3] = Acute toxicity in KM mouse at 1000 to 1500 mg/kg, po administered as single dose measured every 24 hrs for 14 days; format: organism-based; conditions: in vivo, 336 h, dose 1000-1500 mg/kg, time 14 day
[4] = Cmax in Sprague-Dawley rat at 2.5 mg/kg, iv after 24 hrs by LC-MS/MS analysis; format: ADME, organism-based; parameters: route intravenous, time 24 hrs, dose 2.5 mg/kg; conditions: in vivo
[5] = MRT (0 to t) in Sprague-Dawley rat at 5 mg/kg, po after 24 hrs by LC-MS/MS analysis; format: ADME, organism-based; conditions: in vivo
[6] = AUC (0 to t) in Sprague-Dawley rat at 5 mg/kg, po after 24 hrs by LC-MS/MS analysis; format: ADME, organism-based; parameters: route oral, time 24 hrs, dose 5 mg/kg; conditions: in vivo
[7] = Tmax in Sprague-Dawley rat at 2.5 mg/kg, iv after 24 hrs by LC-MS/MS analysis; format: ADME, organism-based; conditions: in vivo
Cytochrome P450 2C9 = Cytochrome P450 2C9 (Homo sapiens, UniProt P11712); experiment: Inhibition of CYP2C9 (unknown origin); format: ADME
[8] = target: cAMP and cAMP-inhibited cGMP 3',5'-cyclic phosphodiesterase 10A (Homo sapiens, UniProt Q9Y233); experiment: Inhibition of human PDE10A catalytic domain (449 to 770 residues) using [3H]-cAMP as substrate after 15 mins by liquid scintillation counting method
[9] = Inhibition of human PDE5A1 D563A mutant expressed in Escherichia coli BL21 incubated for 15 mins using [3H]-cGMP as substrate by liquid scintillation counting method
[10] = Half life in Sprague-Dawley rat at 5 mg/kg, po after 24 hrs by LC-MS/MS analysis; format: ADME, organism-based; conditions: in vivo
[11] = Cmax in Sprague-Dawley rat at 5 mg/kg, po after 24 hrs by LC-MS/MS analysis; format: ADME, organism-based; parameters: route oral, dose 5 mg/kg, time 24 hrs; conditions: in vivo

Sequence of DNA topoisomerase 2-alpha (Homo sapiens) (P11388 whole entry): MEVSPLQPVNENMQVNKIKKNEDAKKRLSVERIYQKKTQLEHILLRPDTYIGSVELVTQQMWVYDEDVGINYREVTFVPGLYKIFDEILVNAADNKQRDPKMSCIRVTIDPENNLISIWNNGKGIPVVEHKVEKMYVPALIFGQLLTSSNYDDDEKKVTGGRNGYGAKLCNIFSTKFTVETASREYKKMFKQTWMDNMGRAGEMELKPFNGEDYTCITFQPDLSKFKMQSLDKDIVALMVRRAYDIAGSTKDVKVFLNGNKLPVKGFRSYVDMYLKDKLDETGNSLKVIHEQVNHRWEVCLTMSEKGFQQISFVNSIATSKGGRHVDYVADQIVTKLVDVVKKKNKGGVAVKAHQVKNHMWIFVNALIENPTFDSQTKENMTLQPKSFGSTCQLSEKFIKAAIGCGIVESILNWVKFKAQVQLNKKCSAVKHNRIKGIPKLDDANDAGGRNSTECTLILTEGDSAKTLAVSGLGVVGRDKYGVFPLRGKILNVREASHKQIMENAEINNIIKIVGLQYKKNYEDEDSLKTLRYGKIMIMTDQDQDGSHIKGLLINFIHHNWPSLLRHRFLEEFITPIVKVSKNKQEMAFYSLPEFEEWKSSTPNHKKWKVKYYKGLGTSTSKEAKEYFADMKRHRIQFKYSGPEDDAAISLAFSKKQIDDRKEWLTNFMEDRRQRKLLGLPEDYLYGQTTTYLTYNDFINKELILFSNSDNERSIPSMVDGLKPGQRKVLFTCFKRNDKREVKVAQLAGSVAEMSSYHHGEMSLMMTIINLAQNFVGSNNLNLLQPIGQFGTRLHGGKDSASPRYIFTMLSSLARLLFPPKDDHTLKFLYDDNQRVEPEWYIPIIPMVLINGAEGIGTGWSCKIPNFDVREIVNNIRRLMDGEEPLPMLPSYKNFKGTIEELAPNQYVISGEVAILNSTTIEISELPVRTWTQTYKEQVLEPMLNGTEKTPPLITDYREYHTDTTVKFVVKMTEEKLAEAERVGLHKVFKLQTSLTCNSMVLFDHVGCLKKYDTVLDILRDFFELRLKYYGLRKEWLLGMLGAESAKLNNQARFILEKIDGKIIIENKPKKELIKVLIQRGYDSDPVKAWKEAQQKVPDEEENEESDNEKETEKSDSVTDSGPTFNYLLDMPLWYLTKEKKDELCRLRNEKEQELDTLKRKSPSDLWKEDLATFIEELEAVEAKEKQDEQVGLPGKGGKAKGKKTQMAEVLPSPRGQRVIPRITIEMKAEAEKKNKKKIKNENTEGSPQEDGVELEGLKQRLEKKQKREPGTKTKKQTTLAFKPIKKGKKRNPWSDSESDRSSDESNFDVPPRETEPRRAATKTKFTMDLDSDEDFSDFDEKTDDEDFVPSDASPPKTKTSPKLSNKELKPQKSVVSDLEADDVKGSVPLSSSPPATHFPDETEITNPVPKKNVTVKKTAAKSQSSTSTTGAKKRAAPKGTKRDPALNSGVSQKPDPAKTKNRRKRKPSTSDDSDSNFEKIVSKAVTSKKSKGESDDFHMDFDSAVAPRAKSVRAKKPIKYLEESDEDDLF
Sequence of cAMP and cAMP-inhibited cGMP 3',5'-cyclic phosphodiesterase 10A (Q9Y233 whole entry, the tested form may be a part): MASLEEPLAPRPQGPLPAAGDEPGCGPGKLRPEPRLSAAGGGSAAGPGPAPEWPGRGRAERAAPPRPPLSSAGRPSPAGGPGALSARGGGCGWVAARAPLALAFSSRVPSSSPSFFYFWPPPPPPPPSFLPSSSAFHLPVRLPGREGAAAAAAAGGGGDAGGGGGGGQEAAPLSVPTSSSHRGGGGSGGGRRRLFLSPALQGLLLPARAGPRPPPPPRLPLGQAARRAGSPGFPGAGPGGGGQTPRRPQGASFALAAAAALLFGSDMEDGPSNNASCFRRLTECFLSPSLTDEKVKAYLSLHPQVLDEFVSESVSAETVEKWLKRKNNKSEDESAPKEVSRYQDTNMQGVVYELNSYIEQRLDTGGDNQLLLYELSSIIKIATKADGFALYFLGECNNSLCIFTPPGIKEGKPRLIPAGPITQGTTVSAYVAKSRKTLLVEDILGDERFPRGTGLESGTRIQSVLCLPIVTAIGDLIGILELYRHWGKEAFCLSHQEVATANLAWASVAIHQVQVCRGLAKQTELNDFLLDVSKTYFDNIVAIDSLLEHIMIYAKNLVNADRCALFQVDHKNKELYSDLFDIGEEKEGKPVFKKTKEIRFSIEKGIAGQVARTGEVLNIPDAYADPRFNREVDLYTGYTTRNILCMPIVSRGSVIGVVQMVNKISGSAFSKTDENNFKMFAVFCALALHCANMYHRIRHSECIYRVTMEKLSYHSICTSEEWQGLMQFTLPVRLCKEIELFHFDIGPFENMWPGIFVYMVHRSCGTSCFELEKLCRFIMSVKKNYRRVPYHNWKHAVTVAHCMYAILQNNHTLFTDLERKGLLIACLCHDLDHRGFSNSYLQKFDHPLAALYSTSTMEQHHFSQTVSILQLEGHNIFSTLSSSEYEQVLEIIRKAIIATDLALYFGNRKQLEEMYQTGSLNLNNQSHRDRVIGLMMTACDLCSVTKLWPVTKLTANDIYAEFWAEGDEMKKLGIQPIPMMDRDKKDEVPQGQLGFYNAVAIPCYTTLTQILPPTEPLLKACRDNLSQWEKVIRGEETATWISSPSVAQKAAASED
Sequence of Cytochrome P450 2C9 (P11712 whole entry, the tested form may be a part): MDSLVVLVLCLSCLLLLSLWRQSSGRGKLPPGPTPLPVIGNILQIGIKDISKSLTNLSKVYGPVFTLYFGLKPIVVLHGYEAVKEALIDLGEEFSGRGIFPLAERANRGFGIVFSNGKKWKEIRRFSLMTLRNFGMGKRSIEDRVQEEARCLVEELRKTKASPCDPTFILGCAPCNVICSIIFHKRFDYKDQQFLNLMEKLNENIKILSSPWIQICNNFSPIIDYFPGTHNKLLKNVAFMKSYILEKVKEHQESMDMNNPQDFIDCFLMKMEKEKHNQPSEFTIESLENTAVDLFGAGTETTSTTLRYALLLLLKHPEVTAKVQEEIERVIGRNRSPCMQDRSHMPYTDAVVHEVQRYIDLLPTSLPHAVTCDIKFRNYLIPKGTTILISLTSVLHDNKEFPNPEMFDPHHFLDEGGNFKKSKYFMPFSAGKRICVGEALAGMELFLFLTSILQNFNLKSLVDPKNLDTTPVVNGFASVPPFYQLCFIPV

COc1ccc2c3c([nH]c2c1)[C@@H]1N(CC3)C(=O)c2c(OC)cccc2N1C
Activity (Rattus norvegicus): Active | IC50 [1]: 42 nM | inhibition [2]: inactive | Activity [3]: Non-Toxic | Cmax [4]: 1800 ng/mL | MRT last at 24 h [5]: 3.19 h | AUC(0-t) at 24 h [6]: 146 ng·h/mL | Tmax [7]: 4.98 min | IC50 (Cytochrome P450 2C9): 10000 nM | IC50 [8]: 3000 nM | IC50 [9]: 2480 nM | half-life [10]: 1.43 h | Cmax [11]: 54.4 ng/mL
